Measurements as given in patent US9801844B2, “Methods and compositions for the treatment of cancer” (priority 2012, dated 2017).
Values joined by “and” are separate entries in the source; they are usually repeats but may differ in a detail not shown here. Equal values may be shown once.

Experiments:
Assay type in all cases: cell-based
[1] = system: MDA-MB-453 human breast cancer cells; test: Cell cycle analysis by DNA flow cytometry; settings: 48 h
Description: For cell cycle analysis the cells were plated (3×105) onto 6 cm dishes and allowed to attach for 24 h. Then the medium was replaced with DMEM containing 10% FBS and DMSO or agents. After 48 h, the cells were analyzed by DNA flow cytometry.
To examine the effects of rosemary on the cell cycle, MDA-MB-453 human breast cancer cells were treated with rosemary extract enriched for CA (50%) at 40 or 80 μg/ml and purified CA at 10, 20 or 40 μg/ml for 48 h. The cells were then stained with propidium iodide and the stained cells were analyzed by DNA flow cytometry (Table 1).
MDA-MB-453 cells were treated with 0, 10, 20, or 40 μg/ml of carnosic acid or 40, 80 μg/ml of rosemary extract (carnosic acid: 50%), and analyzed at 48 hr by DNA flow cytometry. The values indicate the % of cells in the cell cycle phases.

[2] = system: MCF7/Her2-18 cells; test: MTT cell proliferation assay on MCF7/Her2-18 cells; settings: Homo sapiens; MCF7/Her2-18 (45-fold increase Her2); read-out: IC50 growth inhibition
Description: MDA-MB-453 (ER negative, Her2 overexpressing), MDA-MB-468 (triple negative) and MCF7 (ER positive, Her2 low) cells, HT29 (p53 positive human colon cancer cells) (ATCC, Manassas, Va.) were grown in Dulbecco's Modified Eagle's medium (DMEM) (Gibco BRL Life Technologies, Inc., Rockville, Md.) containing 10% (v/v) fetal bovine serum (FBS) (Gibco BRL) at 37° C., 5% C02. SUM 149 (Her2 overexpressing, ER low) (the gift of Dr. R. Parsons, Columbia University Medical Center, New York, N.Y.) were cultivated in Ham's F-12 medium with 10% FBS. MCF7 and MCF7/Her2-18 (MCF7 cells transfected with a full length Her2 cDNA coding region, 45-fold increase Her2) were the kind gift of Dr. Dennis Slamon (Los Angeles, Calif.). These cells were maintained in RPMI supplemented with 10% FBS plus glutamine (1%) and PSF (1%) (Gibco, Rockville Md.).
MTT assay: the MTT {3-(4,5-dimethyl-2-thiazol)-2,5-diphenyl-2H tetrazolilum bromide} (Dojindo; Tokyo, Japan) cell proliferation assay system (Roche Diagnostic, Mannheim, Germany) was used to determine the sensitivity of the various cell lines to agents. Cells were seeded at 1×10^4 cells/well in 96-well plates and allowed to attach for 24 h. […] The cells were treated for 96 or 120 h, after which they were incubated with MTT reagents and the absorbance read at 650 and 575 nm. For cell growth assays, the data are expressed as mean+/−standard deviation. […]

[3] = system: MDA-MB-468 human breast cancer cells; test: Microarray gene expression analysis (Affymetrix, AffyLimma); settings: 6 h
Description: MDA-MB-468 cells were treated with 5 μg/mL (15 μM) or 20 μg/mL of CA for 6 or 24 h. RNA was isolated using methods known in the art. Total cellular RNA was extracted using Trizol (Invitrogen; Carlsbad, Calif.) according to the manufacturer's protocol with minor modifications, and then purified twice with Qiagen's RNeasy column. Total RNA (8 μg) was reverse transcribed with T7-(dT)24 primer and Super Script III reverse transcriptase (Invitrogen).
Microarray analysis was performed using methods known in the art. Labeled cDNA was generated from MDA-MB-468 cells and hybridized to Affymetrix […] genome arrays at Columbia University following standard Affymetrix protocols. Analysis was performed using the AffyLimmaGUI package in the open-source Bioconductor suite.
Affy-Limma analysis was used to determine the effects of carnosic acid, at a dose of 20 μg/ml and at 6 h on the gene expression pattern in MDA-MB-468 breast cancer cells. Assays were performed as described in the Materials and methods section. Fold change (log) is the mean of the ratio of hybridization signals in carnosic acid treated vs. control treated cells {40 highest M (log-fold) values; p<0.05}.
For gene expression analysis, the samples were analyzed by AffyLima analysis. The statistical significance of differential expression was calculated using the empirical Bayesian LIMMA ([…]) method of Smyth et al. (Smyth, G. K. et al., “Use of within-array replicate spots for assessing differential expression in microarray experiments.” Bioinformatics 2005; 21:2067-75, incorporated herein by reference): B=log e(odds of differential expression), the Bayesian natural (base e) log of the odds that the genes are differentially expressed.

`CC(C)c1cc2c(c(O)c1O)[C@@]1(C(=O)O)CCCC(C)(C)[C@@H]1CC2` [carnosic acid] was tested, and the “% of Cells G1” value ([1]; 10 ug/ml) was 51.2%, the “% of Cells G2” value ([1]; 10 ug/ml) was 11.8% and the “% of Cells Sub G1” value ([1]; 10 ug/ml) was 1.5%. The “% of Cells S” value ([1]; 10 ug/ul) was 31.2%, the “% of Cells G1” value ([1]; 20 ug/ml) was 71.9% and the “% of Cells G2” value ([1]; 20 ug/ml) was 9.1%. For the same compound, the “% of Cells Sub G1” value ([1]; 20 ug/ml) was 1.7%, the “% of Cells S” value ([1]; 20 ug/ul) was 15.3% and the “% of Cells G1” value ([1]; 40 ug/ml) was 50.8%. For the same compound, the “% of Cells G2” value ([1]; 40 ug/ml) was 13.9%, the “% of Cells Sub G1” value ([1]; 40 ug/ml) was 1.6% and the “% of Cells S” value ([1]; 40 ug/ul) was 28.9%. The IC50 [2] was 9 µg/mL and 27 µM, the “number of genes altered, p<0.05” value ([3]; 20 μg/ml) was 124 genes and the “ratio of genes activated to suppressed” value ([3]; 20 μg/ml) was 4.6. For the same compound, the “number of genes repressed” value ([3]; higher dose (20 μg/ml)) was 22 genes, the “number of genes whose expression is activated” value ([3]; higher dose (20 μg/ml)) was 102 genes and the “number of genes whose expression is activated” value ([3]; low dose (5 μg/ml), glutathione metabolism and transport genes) was 3 genes. For the same compound, the “M (log-fold) GDF15/LOC100292463 expression” value ([3]; probe 22577_x_at, 20 μg/ml) was 3.2033 log-fold, the “M (log-fold) TXNRD1 expression” value ([3]; probe 201266_at, 20 μg/ml) was 1.6785 log-fold and the “M (log-fold) ELF3 expression” value ([3]; probe 201510_at, 20 μg/ml) was −1.3391 log-fold. The “M (log-fold) HEXIM1 expression” value ([3]; probe 202814_s_at, 20 μg/ml) was −1.2946 log-fold, the “M (log-fold) GCLC expression” value ([3]; probe 202922_at, 20 μg/ml) was 2.5514 log-fold and the “M (log-fold) GCLC expression” value ([3]; probe 202923_s_at, 20 μg/ml) was 2.3524 log-fold. The “M (log-fold) HMOX1 expression” value ([3]; probe 203665_at, 20 μg/ml) was 6.2079 log-fold, the “M (log-fold) TTLL4 expression” value ([3]; probe 203702_s_at, 20 μg/ml) was 1.4497 log-fold and the “M (log-fold) GCLM expression” value ([3]; probe 203925_at, 20 μg/ml) was 1.6079 log-fold. For the same compound, the “M (log-fold) CDKN2C expression” value ([3]; probe 204159_at, 20 μg/ml) was −1.5843 log-fold, the “M (log-fold) PMAIP1 expression” value ([3]; probe 204286_s_at, 20 μg/ml) was 1.5443 log-fold and the “M (log-fold) KIF21B expression” value ([3]; probe 204411 at, 20 μg/ml) was 2.0237 log-fold. The “M (log-fold) CBR3 expression” value ([3]; probe 205379_at, 20 μg/ml) was 1.4702 log-fold, the “M (log-fold) CTH expression” value ([3]; probe 206085_s_at, 20 μg/ml) was 2.3083 log-fold and the “M (log-fold) ABCC2 expression” value ([3]; probe 206155_at, 20 μg/ml) was 2.2558 log-fold. The “M (log-fold) CYP4F3 expression” value ([3]; probe 206515 _at, 20 μg/ml) was 2.4762 log-fold, the “M (log-fold) AKR1B10 expression” value ([3]; probe 206561_s_at, 20 μg/ml) was 2.3416 log-fold and the “M (log-fold) SLC7A11 expression” value ([3]; probe 207528_s_at, 20 μg/ml) was 2.3041 log-fold. For the same compound, the “M (log-fold) ID3 expression” value ([3]; probe 207826_s_at, 20 μg/ml) was −1.9788 log-fold, the “M (log-fold) DDIT3/NR1H3 expression” value ([3]; probe 209383_at, 20 μg/ml) was 1.8207 log-fold and the “M (log-fold) GRB10 expression” value ([3]; probe 209409_at, 20 μg/ml) was 1.6777 log-fold. The “M (log-fold) RIT1 expression” value ([3]; probe 209882_at, 20 μg/ml) was 1.3792 log-fold, the “M (log-fold) SLC7A11 expression” value ([3]; probe 209921_at, 20 μg/ml) was 3.7330 log-fold and the “M (log-fold) MAP2 expression” value ([3]; probe 210015_s_at, 20 μg/ml) was 1.9566 log-fold. For the same compound, the “M (log-fold) AKR1C2 expression” value ([3]; probe 211653_x_at, 20 μg/ml) was 4.1458 log-fold, the “M (log-fold) ZC3HAV1 expression” value ([3]; probe 213051_at, 20 μg/ml) was −1.5819 log-fold and the “M (log-fold) AKR1C1 expression” value ([3]; probe 216594_x_at, 20 μg/ml) was 3.8405 log-fold. For the same compound, the “M (log-fold) CTH expression” value ([3]; probe 217127_at, 20 μg/ml) was 2.3586 log-fold, the “M (log-fold) SLC7A11 expression” value ([3]; probe 217678_at, 20 μg/ml) was 3.9492 log-fold and the “M (log-fold) NAMPT expression” value ([3]; probe 217738_at, 20 μg/ml) was 1.4857 log-fold. The “M (log-fold) NAMPT expression” value ([3]; probe 217739_s_at, 20 μg/ml) was 1.7329 log-fold, the “M (log-fold) PHLDA1 expression” value ([3]; probe 217996_at, 20 μg/ml) was 1.9833 log-fold and the “M (log-fold) SLC38A2 expression” value ([3]; probe 218041_x_at, 20 μg/ml) was 1.2613 log-fold. For the same compound, the “M (log-fold) TRIB3 expression” value ([3]; probe 218145_at, 20 μg/ml) was 1.6338 log-fold, the “M (log-fold) KCTD15 expression” value ([3]; probe 218553_s_at, 20 μg/ml) was 1.3491 log-fold and the “M (log-fold) OSGIN1 expression” value ([3]; probe 219475_at, 20 μg/ml) was 1.9508 log-fold. For the same compound, the “M (log-fold) SLC38A2 expression” value ([3]; probe 220924_s_at, 20 μg/ml) was 1.2541 log-fold, the “M (log-fold) RIPK4 expression” value ([3]; probe 221215_s_at, 20 μg/ml) was −1.2540 log-fold and the “M (log-fold) C9orf91 expression” value ([3]; probe 221865_at, 20 μg/ml) was 1.3335 log-fold. For the same compound, the “M (log-fold) ALDH1A3 expression” value ([3]; probe 222168_at, 20 μg/ml) was −1.4627 log-fold.
